From patent EP4603477A1, “INHIBITORS OF THE CORONAVIRUS ACCESSORY PROTEIN ORF9B” (Consejo Superior De Investigaciones Científicas, priority 2024, dated 2025)
Read-outs that look alike come from different tables or passages of the source.

What was measured:
A549.ORF9b cells [1] = assay type: cell-based
THP-1.ORF9b cells = assay type: cell-based
A549.ORF9b cells [2] = experiment: Fluorescence microscopy, co-localization of ORF9b and mitochondria; assay type: cell-based
A549wt cells = assay type: cell-based; conditions: both without and with LPS+ATP, MCC950 for the last 3 h
A549.ORF9b = assay type: cell-based; conditions: A549.ORF9b cells; 10 ng/mL interferon-β1 4 h, inhibitor 1 µM 1 h
THP-1. ORF9b cells = assay type: cell-based; conditions: 10 ng/mL interferon-β1 4 h, inhibitor 1 µM 1 h
[3] = biological target: T1, Recombinant SARS-CoV-2 GST-ORF9b protein (Severe acute respiratory syndrome coronavirus 2, UniProt P0DTD2); experiment: Surface plasmon resonance, ORF9b-ORF9b homotypic interaction; assay type: binding; conditions: mobile-phase GST-ORF9b pre-incubated with 5 µM compound
T1 construct: purchased BPS Bioscience

[4] = A549 lung epithelial cells, low micromolar concentrations (Fig. 9A)
[5] = THP-1 monocyte-macrophage cells, low micromolar concentrations (Fig. 9B)

T1 sequence (P0DTD2 whole entry): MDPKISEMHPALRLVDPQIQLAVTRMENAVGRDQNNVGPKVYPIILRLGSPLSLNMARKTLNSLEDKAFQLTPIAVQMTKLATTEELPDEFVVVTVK

Row | Structure (SMILES) | inhibition of ORF9b-induced caspase-1 activation (A549.ORF9b cells [1]; A549.ORF9b cells) | logP (physchem) | inhibition of ORF9b-induced caspase-1 activation (THP-1.ORF9b cells; THP-1.ORF9b cells) | mitochondrial eviction of ORF9b (A549.ORF9b cells [2]; low micromolar concentrations) | inhibition of the activation of caspase-1 induced by ORF9b (A549.ORF9b cells [1]; [4]) | inhibition of the activation of caspase-1 induced by ORF9b (THP-1.ORF9b cells; [5]) | induction of caspase-1 activation by SARS-CoV-2 accessory proteins (A549wt cells) | restoration of IFN-β induced expression of OAS3 and ISG15 mitigated by ORF9b (A549.ORF9b) | restoration of IFN-β induced expression of OAS3 and ISG15 mitigated by ORF9b (THP-1. ORF9b cells) | mitochondrial eviction of ORF9b (A549.ORF9b cells [2]; 5 µM, 4 h (Fig. 11)) | inhibition of the activation of caspase-1 induced by ORF9b (A549.ORF9b cells [1]; A549.ORF9b cells, 5 µM, 3 h (Fig. 6)) | inhibition of the activation of caspase-1 induced by ORF9b (THP-1.ORF9b cells; THP-1.ORF9b cells, 5 µM, 3 h (Fig. 7)) | Binding of GST-ORF9b to immobilized GST-ORF9b [3] | mitochondrial eviction of ORF9b (A549.ORF9b cells [2]; 2.5 µM, 4 h (Fig. 8))
1 | Cc1ccc([N+](=O)[O-])c(NC(=O)Cc2ccc(F)cc2)c1 [Compound 8, N-(2-Nitro-5-methylphenyl)-2-(4-fluorophenyl)acetamide] | much lower or no | 3.27 | much lower or no | did not cause mitochondrial eviction |  |  |  |  |  |  |  |  |  | 
2 | COc1ccc(CC(=O)Nc2cc([N+](=O)[O-])ccc2F)cc1 [Compound 7, N-(2-Fluoro-5-nitrophenyl)-2-(4-methoxyphenyl)acetamide] | inhibited | 2.98 | inhibited |  | inhibit | inhibit |  |  |  |  |  |  |  | 
3 | COc1ccc(CC(=O)Nc2cc(N)ccc2F)cc1 [Compound 4, N-(5-Amino-2-fluorophenyl)-2-(4-methoxyphenyl)acetamide] | inhibited | 2.01 | inhibited |  | inhibit | inhibit |  |  |  |  |  |  |  | 
4 | CC(C)(O)c1coc(S(=O)(=O)NC(=O)Nc2c3c(cc4c2CCC4)CCC3)c1 [MCC950, reference compound] |  |  |  |  |  |  | abolished |  |  |  |  |  |  | 
5 | O=C(Cc1ccccc1)Nc1cc([N+](=O)[O-])ccc1F [Compound 9, N-(2-Fluoro-5-nitrophenyl)-2-phenylacetamide] |  | 2.85 |  |  |  |  |  |  |  |  |  |  |  | 
6 | Nc1ccc(F)c(NC(=O)Cc2ccc(Cl)cc2)c1 [Compound 5, N-(5-Amino-2-fluorophenyl)-2-(4-chlorophenyl)acetamide] | inhibited | 2.7 | inhibited |  | inhibit | inhibit |  |  |  |  |  |  |  | 
7 | O=C(Cc1ccc(Cl)cc1)Nc1cc([N+](=O)[O-])ccc1F [Compound 6, 2-(4-Chlorophenyl)-N-(2-fluoro-5-nitrophenyl)acetamide] | inhibited | 3.47 | inhibited | capable of causing mitochondrial eviction | inhibit | inhibit |  | largely restored | largely restored | induce mitochondrial eviction |  |  |  | 
8 | Nc1ccc(F)c(NC(=O)c2cccc3ccccc23)c1 [Compound 2, N-(5-Amino-2-fluorophenyl)-1-naphthamide] | inhibited | 3.19 | inhibited | capable of causing mitochondrial eviction | inhibit | inhibit |  | largely restored | largely restored | induce mitochondrial eviction |  |  |  | 
9 | Nc1ccc(F)c(NC(=O)Cc2ccccc2)c1 [Compound 1] | significantly inhibited | 2.14 | significantly inhibited | rapid and remarkable partial eviction |  |  |  | largely restored | largely restored |  | inhibits | inhibits | significantly inhibited | causes mitochondrial eviction
10 | Cc1ccc(N)c(NC(=O)Cc2ccc(F)cc2)c1 [Compound 3, N-(2-Amino-5-methylphenyl)-2-(4-fluorophenyl)acetamide] | much lower or no | 2.63 | much lower or no | did not cause mitochondrial eviction |  |  |  |  |  |  |  |  |  | 
